# Results from publication PMC10449633 (Nature Chemical Biology, 2023).
# pIC50: −log10 of the molar value. Several values for one entry are separate records, joined by “and”; a condition that tells them apart may be missing. Equal entries are not always repeated. Where two headings read alike, the source gives them in different places. Numbered stars: 1 amine (or outer) side, 2 acyl side, 3 side chain; on linkers, the order of the positions; unused ones are H or OH. Square brackets hold non-standard residues; d marks the D form. Peptide text beside a SMILES is read from it. ξ: configuration not given here. X1 = CN(C(Cc1cn(Cc2ccc(Br)cc2)c2ccccc12)C(=O)[*:2])[*:1]; ξAla(CF3) = NC(CC(F)(F)F)C(=O)O; X2 = N#CCCC(O[*:1])C(=O)[*:2]; NMeL = CN[CH](CC(C)C)C(=O)O; NMeA = CN[CH](C)C(=O)O
# What was measured:
# SARS-CoV-2 = conditions: Vero cells
# Sec61α N300M = Sec61α N300M (Canis lupus familiaris, UniProt P38377, N300M); experiment: Luciferase reporter assay in HEK293 cells expressing Sec61α N300M; conditions: HEK293, 24 h, read-out: luciferase reporter activity (% of no-drug control), N300M
# Sec61α N300M, sequence (P38377 whole entry N300M, the tested form may be a part): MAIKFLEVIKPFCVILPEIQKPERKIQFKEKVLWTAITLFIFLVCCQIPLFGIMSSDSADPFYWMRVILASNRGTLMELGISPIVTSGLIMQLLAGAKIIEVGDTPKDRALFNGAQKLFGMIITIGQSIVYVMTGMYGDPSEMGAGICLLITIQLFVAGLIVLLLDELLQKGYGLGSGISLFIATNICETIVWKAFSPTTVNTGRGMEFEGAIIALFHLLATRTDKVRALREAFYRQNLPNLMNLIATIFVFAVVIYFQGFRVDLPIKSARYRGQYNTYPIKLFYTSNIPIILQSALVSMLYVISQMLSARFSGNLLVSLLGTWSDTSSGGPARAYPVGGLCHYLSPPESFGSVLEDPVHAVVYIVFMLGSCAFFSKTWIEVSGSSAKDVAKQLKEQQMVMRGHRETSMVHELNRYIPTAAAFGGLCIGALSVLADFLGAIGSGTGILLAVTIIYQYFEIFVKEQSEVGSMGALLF
# Sec61α N300M, sequence (P60468 whole entry, further chain, the tested form may be a part): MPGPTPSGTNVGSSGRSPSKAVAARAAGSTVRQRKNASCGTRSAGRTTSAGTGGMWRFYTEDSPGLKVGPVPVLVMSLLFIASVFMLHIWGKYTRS
# Sec61α N300M, sequence (P60059 whole entry, further chain, the tested form may be a part): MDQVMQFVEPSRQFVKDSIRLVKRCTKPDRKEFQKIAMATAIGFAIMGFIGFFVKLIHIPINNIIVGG
# Description: (§1) Data are mean values ± s.d. from n = 2 independent experiments.
# (§2) HEK293T cells (0.3 × 10^6) were seeded per well of a six-well plate and incubated at 37 °C in 5% CO2 for 24 h to adhere. Each of the two wells was transfected with 1 µg of plasmid encoding a luciferase with the signal peptide of either VCAM1 or pPL using PEI in a 5:1 ratio, after which cells were returned to the incubator for a further 24 h. Transfected cells were then resuspended following trypsinization, cell count estimated using a TC20 Automated Cell Counter (BioRad) and diluted to seed a 96-well flat-bottom plate with 1.6 × 10^4 cells per well. […] Cells were then incubated for a further 24 h, after which the luciferase-containing media were transferred to a clean 96-well plate and stored at −20 °C. Luciferase activity of the media was estimated using a Gaussia-GLOW Juice Luciferase Assay kit from PJK Biotech GmbH as per the manufacturer’s instructions. Luminescence was measured using an EnSpire Multimode plate reader (PerkinElmer). Background luminescence from media placed in a well with neither cells nor drug was subtracted from all values, and measurements were calculated as a percentage of luminescence intensity of a well expressing the appropriate luciferase construct in the absence of any drug. Curves were fitted, and IC50 values were calculated using GraphPad Prism 8.
# (§3) HEK293 Flp-In T-REx cells (Thermo Fisher Scientific, R78007) were cultured in Dulbecco’s modified Eagle’s medium (Gibco) supplemented with 10% FBS (Gibco) at 37 °C in a humidified 5% CO2 atmosphere. Approximately 0.3 µg of pOG44 and 1 µg of targeting construct plasmids were mixed in 250 µl of OptiMEM (Thermo Fisher Scientific, 51985-026). A total of 3 µl (3 µg) Lipofectamine3000 transfection reagent was then added to the DNA mix and incubated at room temperature for 20 min, and the whole mixture was added to the cells. Cells were exposed to 100 µg ml^−^1 hygromycin B (Invitrogen) and 10 µg ml^−^1 blasticidin for 3–4 weeks until the appearance of resistant colonies. Colonies were expanded into T75 flasks and induced with doxycycline (Sigma-Aldrich, D9891) at a concentration of 1–5 µg ml^−^1 for 48 h. Cells were collected, and total RNA was extracted followed by cDNA amplification and sequencing of Sec61 with gene-specific PCR primers to confirm. Cells were then used for the luciferase reporter assays as above.
# (§4) Data are mean values ± SD and are representative of n = 2 independent experiments.
# WT Sec61α = target: T1, WT Sec61α (Canis lupus familiaris, UniProt P38377); experiment: GLuc secretion reporter fused to full-length IL-2 or TNF, cells stably expressing WT Sec61α; format: cell-based, canine; conditions: for Sec61 WT - Hu IL2(FL) / Sec61 WT - Hu PD1(ss) / Sec61 WT - Hu TNFa(FL): replicate columns
# T1 construct: expressed in transfected cells
# T1 sequence (P60468 whole entry, the tested form may be a part): as the sequence (P60468 whole entry, further chain, the tested form may be a part) above
# T1 sequence (P38377 whole entry, the tested form may be a part): as the sequence (P38377 whole entry N300M, the tested form may be a part) above, with M300N counted along it
# T1 sequence (P60059 whole entry, further chain, the tested form may be a part): as the sequence (P60059 whole entry, further chain, the tested form may be a part) above
# mouse splenocytes [1] = conditions: 24 h treatment
# [2] = tested on: T-cell acute lymphoblastic leukemia cells; conditions: in vitro; cited from earlier work
# mouse splenocytes [3] = experiment: Cytokine secretion assay, stimulated mouse splenocytes (MSD U-PLEX); format: cell-based; conditions: 24 h, tested 0.025–25,000 nM
# R66I Sec61α = target: T2, R66I Sec61α (Canis lupus familiaris, UniProt P38377, R66I); experiment: GLuc secretion reporter fused to full-length IL-2 or TNF, cells stably expressing R66I Sec61α; format: cell-based, canine; conditions: for Sec61 R66I - Hu IL2(FL) / Sec61 R66I - Hu PD1(ss) / Sec61 R66I - Hu TNFa(FL): replicate columns
# T2 construct: expressed in transfected cells
# T2 sequence (P60468 whole entry, the tested form may be a part): as the sequence (P60468 whole entry, further chain, the tested form may be a part) above
# T2 sequence (P38377 whole entry R66I, the tested form may be a part): as the sequence (P38377 whole entry N300M, the tested form may be a part) above, with R66I, M300N counted along it
# T2 sequence (P60059 whole entry, further chain, the tested form may be a part): as the sequence (P60059 whole entry, further chain, the tested form may be a part) above
# human PBMCs = conditions: concentrations up to 20 µM; PBMCs and splenocytes
# [4] = tested on: Sec61 R66I TNFa(FL) reporter cells; experiment: CTG (CellTiter-Glo) viability of TNFa(FL) reporter cells expressing Sec61 R66I; format: cell-based; conditions: replicate columns
# From the text: Supplement 41589_2023_1326_MOESM7_ESM.xlsx, sheet "Panel B" | column: Sec61 R66I - CTG (TNFa(FL))
# Wild Type Sec61α = Wild Type Sec61α (Canis lupus familiaris, UniProt P38377); experiment: Luciferase reporter assay in HEK293 Flp-In T-REx cells expressing Wild Type Sec61α; parameters: remaining activity: dose or concentration left out as unconfirmed; conditions: HEK293, 24 h, read-out: luciferase reporter activity (% of no-drug control), Wild Type
# Wild Type Sec61α, sequence (P38377 whole entry): as the sequence (P38377 whole entry N300M, the tested form may be a part) above, with M300N counted along it
# Wild Type Sec61α, sequence (P60468 whole entry, further chain): as the sequence (P60468 whole entry, further chain, the tested form may be a part) above
# Wild Type Sec61α, sequence (P60059 whole entry, further chain): as the sequence (P60059 whole entry, further chain, the tested form may be a part) above
# Description: as §1, §2, §3, §4
smiles,measurement,setting,value
CC(C)CC1NC(=O)C(Cc2cn(Cc3ccc(Br)cc3)c3ccccc23)N(C)C(=O)C(CC(F)(F)F)NC(=O)C(CC(C)C)N(C)C(=O)C(CC(F)(F)F)NC(=O)C(CCC#N)OC(=O)C(C)N(C)C1=O (stereo not shown) [KZR-8445] (cyclo([X1]L[NMeA][X2][ξAla(CF3)][NMeL][ξAla(CF3)]); configuration not given here),virus-induced cytotoxicity,SARS-CoV-2,blocked
same,remaining activity at 0.00018303 µM,Sec61α N300M; Drug nM (log10) 0.18303,96.7%
same,remaining activity at 0.000660151 µM,Sec61α N300M; Drug nM (log10) 0.660151,105%
same,remaining activity,Sec61α N300M; Drug nM (log10) 1.61439,76.6%
same,remaining activity,Sec61α N300M; Drug nM (log10) 2.09151,74%
same,remaining activity,Sec61α N300M; Drug nM (log10) 3.04576,68%
same,remaining activity at 0.000508 µM,Sec61α N300M; Drug nM (log10) -0.29409,92.5%
same,Sec61 WT - Hu IL2(FL),WT Sec61α; 0.32 nM,112 and 115 and 119
same,Sec61 WT - Hu PD1(ss),WT Sec61α; 0.32 nM,120 and 121 and 116
same,Sec61 WT - Hu TNFa(FL),WT Sec61α; 0.32 nM,132 and 105 and 123
same,Sec61 WT - Hu IL2(FL),WT Sec61α; 1.6 nM,108 and 112 and 116
same,Sec61 WT - Hu PD1(ss),WT Sec61α; 1.6 nM,107 and 115 and 113
same,Sec61 WT - Hu TNFa(FL),WT Sec61α; 1.6 nM,119 and 96 and 85
same,Sec61 WT - Hu IL2(FL),WT Sec61α; 8 nM,105 and 102 and 116
same,Sec61 WT - Hu PD1(ss),WT Sec61α; 8 nM,91 and 108 and 92
same,Sec61 WT - Hu TNFa(FL),WT Sec61α; 8 nM,123 and 114 and 93
same,Sec61 WT - Hu IL2(FL),WT Sec61α; 40 nM,89 and 83 and 75
same,Sec61 WT - Hu PD1(ss),WT Sec61α; 40 nM,62 and 54 and 56
same,Sec61 WT - Hu TNFa(FL),WT Sec61α; 40 nM,81 and 75 and 70
same,Sec61 WT - Hu IL2(FL),WT Sec61α; 200 nM,57 and 37 and 42
same,Sec61 WT - Hu PD1(ss),WT Sec61α; 200 nM,18 (2×) and 19
same,Sec61 WT - Hu TNFa(FL),WT Sec61α; 200 nM,36 and 30 and 29
same,Sec61 WT - Hu IL2(FL),WT Sec61α; 1000 nM,7 and 6 (2×)
same,Sec61 WT - Hu PD1(ss),WT Sec61α; 1000 nM,2
same,Sec61 WT - Hu TNFa(FL),WT Sec61α; 1000 nM,3 (2×) and 2
same,Sec61 WT - Hu IL2(FL),WT Sec61α; 5000 nM,1 and 0 (2×)
same,Sec61 WT - Hu PD1(ss),WT Sec61α; 5000 nM,0
same,Sec61 WT - Hu TNFa(FL),WT Sec61α; 5000 nM,1 and 0 (2×)
same,Sec61 WT - Hu IL2(FL),WT Sec61α; 25000 nM,0
same,Sec61 WT - Hu PD1(ss),WT Sec61α; 25000 nM,0 (2×) and -1
same,Sec61 WT - Hu TNFa(FL),WT Sec61α; 25000 nM,1 and 0 (2×)
same,pIC50,"WT Sec61α; 24 h, doxycycline-induced",~7.00
same,cell viability (CTG assay),mouse splenocytes [1]; 0.025 nM,106.047 and 100.001
same,cell viability (CTG assay),mouse splenocytes [1]; 0.25 nM,110.01 and 102.05
same,cell viability (CTG assay),mouse splenocytes [1]; 2.5 nM,105.776 and 105.957
same,cell viability (CTG assay),mouse splenocytes [1]; 25 nM,105.176 and 97.9523
same,cell viability (CTG assay),mouse splenocytes [1]; 250 nM,107.467 and 93.3938
same,cell viability (CTG assay),mouse splenocytes [1]; 2500 nM,99.7089 and 85.9729
same,cell viability (CTG assay),mouse splenocytes [1]; 25000 nM,95.1208 and 88.5789
same,dexamethasone resistance in T-ALL cells,[2],overcome dexamethasone resistance
same,pIC50,"mouse splenocytes [3]; LPS-stimulation, read-out: IC50, IL-6 secretion",6.82
same,pIC50,"mouse splenocytes [3]; Mus musculus, Splenocyte, LPS-stimulation, read-out: IC50, IL-1β secretion",< 4.60
same,pIC50,"mouse splenocytes [3]; Mus musculus, Splenocyte, LPS-stimulation, read-out: IC50, IL-6 secretion",6.94
same,pIC50,"mouse splenocytes [3]; Mus musculus, Splenocyte, LPS-stimulation, read-out: IC50, IL-23 secretion",6.69
same,pIC50,"mouse splenocytes [3]; Mus musculus, Splenocyte, anti-CD3/CD28-stimulation, read-out: IC50, GM-CSF secretion",7.51
same,pIC50,"mouse splenocytes [3]; Mus musculus, Splenocyte, anti-CD3/CD28-stimulation, read-out: IC50, IFNγ secretion",7.22
same,pIC50,"mouse splenocytes [3]; Mus musculus, Splenocyte, anti-CD3/CD28-stimulation, read-out: IC50, TNFα secretion",6.99
same,pIC50,"mouse splenocytes [3]; anti-CD3/CD28-stimulation, read-out: IC50, GM-CSF secretion",7.40
same,pIC50,"mouse splenocytes [3]; anti-CD3/CD28-stimulation, read-out: IC50, IFNγ secretion",7.49
same,pIC50,"mouse splenocytes [3]; anti-CD3/CD28-stimulation, read-out: IC50, TNFα secretion",7.07
same,Sec61 R66I - Hu IL2(FL),R66I Sec61α; 0.32 nM,116 (2×) and 120
same,Sec61 R66I - Hu PD1(ss),R66I Sec61α; 0.32 nM,105 and 121 and 112
same,Sec61 R66I - Hu TNFa(FL),R66I Sec61α; 0.32 nM,121 and 138 and 116
same,Sec61 R66I - Hu IL2(FL),R66I Sec61α; 1.6 nM,105 and 113 and 110
same,Sec61 R66I - Hu PD1(ss),R66I Sec61α; 1.6 nM,120 and 103 and 107
same,Sec61 R66I - Hu TNFa(FL),R66I Sec61α; 1.6 nM,85 and 126 and 152
same,Sec61 R66I - Hu IL2(FL),R66I Sec61α; 8 nM,113 and 98 and 120
same,Sec61 R66I - Hu PD1(ss),R66I Sec61α; 8 nM,115 and 104 and 125
same,Sec61 R66I - Hu TNFa(FL),R66I Sec61α; 8 nM,118 and 113 and 150
same,Sec61 R66I - Hu IL2(FL),R66I Sec61α; 40 nM,101 and 106 and 117
same,Sec61 R66I - Hu PD1(ss),R66I Sec61α; 40 nM,115 and 120 and 121
same,Sec61 R66I - Hu TNFa(FL),R66I Sec61α; 40 nM,103 and 123 and 141
same,Sec61 R66I - Hu IL2(FL),R66I Sec61α; 200 nM,106 and 96 and 94
same,Sec61 R66I - Hu PD1(ss),R66I Sec61α; 200 nM,88 and 107 and 86
same,Sec61 R66I - Hu TNFa(FL),R66I Sec61α; 200 nM,88 and 105 and 111
same,Sec61 R66I - Hu IL2(FL),R66I Sec61α; 1000 nM,79 and 90 and 87
same,Sec61 R66I - Hu PD1(ss),R66I Sec61α; 1000 nM,68 and 64 and 75
same,Sec61 R66I - Hu TNFa(FL),R66I Sec61α; 1000 nM,82 (2×) and 71
same,Sec61 R66I - Hu IL2(FL),R66I Sec61α; 5000 nM,83 and 76 and 88
same,Sec61 R66I - Hu PD1(ss),R66I Sec61α; 5000 nM,52 and 49 (2×)
same,Sec61 R66I - Hu TNFa(FL),R66I Sec61α; 5000 nM,73 and 85 and 77
same,Sec61 R66I - Hu IL2(FL),R66I Sec61α; 25000 nM,89 and 88 and 72
same,Sec61 R66I - Hu PD1(ss),R66I Sec61α; 25000 nM,48 (2×) and 40
same,Sec61 R66I - Hu TNFa(FL),R66I Sec61α; 25000 nM,70 and 78 and 77
same,block of secretion of both GLuc reporter constructs in R66I cells,"R66I Sec61α; IL-2 and TNFα GLuc, versus WT Sec61α",reduced
same,effects on cell viability,human PBMCs,minimal effects
same,Sec61 R66I - CTG (TNFa(FL)),[4]; 0.32 nM,108 and 113 and 120
same,Sec61 R66I - CTG (TNFa(FL)),[4]; 1.6 nM,101 and 108 and 112
same,Sec61 R66I - CTG (TNFa(FL)),[4]; 8 nM,103 and 106 and 110
same,Sec61 R66I - CTG (TNFa(FL)),[4]; 40 nM,99 and 111 and 119
same,Sec61 R66I - CTG (TNFa(FL)),[4]; 200 nM,106 and 110 and 120
same,Sec61 R66I - CTG (TNFa(FL)),[4]; 1000 nM,112 (2×) and 113
same,Sec61 R66I - CTG (TNFa(FL)),[4]; 5000 nM,102 and 107 and 104
same,Sec61 R66I - CTG (TNFa(FL)),[4]; 25000 nM,101 and 94 and 102
same,remaining activity at 0.00018303 µM,Wild Type Sec61α; Drug nM (log10) 0.18303,85.5%
same,remaining activity at 0.000660151 µM,Wild Type Sec61α; Drug nM (log10) 0.660151,69.5%
same,remaining activity at 0.00113727 µM,Wild Type Sec61α; Drug nM (log10) 1.13727,51.6%
same,remaining activity,Wild Type Sec61α; Drug nM (log10) 1.61439,27.8%
same,remaining activity,Wild Type Sec61α; Drug nM (log10) 2.09151,11.4%
same,remaining activity,Wild Type Sec61α; Drug nM (log10) 2.56864,4.55%
same,remaining activity,Wild Type Sec61α; Drug nM (log10) 3.04576,2.42%
same,remaining activity,Wild Type Sec61α; Drug nM (log10) 3.52288,1.93%
same,remaining activity at 0.004 µM,Wild Type Sec61α; Drug nM (log10) 4,2.26%
same,remaining activity at 0.00050805 µM,Wild Type Sec61α; Drug nM (log10) -0.29409,91.1%
